Several values for one entry are separate records, joined by “and”; a condition that tells them apart may be missing. Equal entries are not always repeated.
Legend:
[1] = for vapor or sublimation pressure: Calculated from knudsen effusion weight loss; for Triple point temperature: DTA
[2] = Molar enthalpy of transition or fusion; conditions: DSC

NC(=O)c1cccc(N)c1 [3-aminobenzamide]
[1], Crystal
Conditions | vapor or sublimation pressure
358.14 K | 3.7e-05 kPa and 3.8e-05 kPa
360.19 K | 4.8e-05 kPa and 4.7e-05 kPa
362.14 K | 5.9e-05 kPa and 5.8e-05 kPa and 6e-05 kPa
364.14 K | 7.5e-05 kPa
366.17 K | 9.4e-05 kPa
368.15 K | 0.000116 kPa and 0.000114 kPa and 0.000117 kPa
370.15 K | 0.000144 kPa and 0.000146 kPa and 0.000143 kPa
372.19 K | 0.000179 kPa and 0.000177 kPa and 0.000176 kPa
374.13 K | 0.000218 kPa and 0.000216 kPa and 0.000222 kPa
376.15 K | 0.000276 kPa and 0.000275 kPa and 0.000274 kPa
378.18 K | 0.000342 kPa and 0.000338 kPa
380.14 K | 0.00042 kPa and 0.000406 kPa and 0.000405 kPa

Conditions | Molar enthalpy of transition or fusion, [2] [kcal/mol] | Triple point temperature, [1] [K]
Crystal 1 | 4.85 | 387.5
Crystal 2 | 0.789 | 352.4

NC(=O)c1ccc(N)cc1 [4-aminobenzamide]
[1], Crystal
Conditions | vapor or sublimation pressure
389.14 K | 0.000125 kPa and 0.000124 kPa
391.15 K | 0.000154 kPa and 0.000156 kPa and 0.000152 kPa
393.14 K | 0.000185 kPa and 0.000182 kPa and 0.000187 kPa
395.15 K | 0.000228 kPa and 0.000226 kPa
397.15 K | 0.000271 kPa and 0.000279 kPa
399.14 K | 0.00033 kPa and 0.000332 kPa and 0.000335 kPa
401.16 K | 0.000407 kPa and 0.000411 kPa
403.15 K | 0.000497 kPa and 0.000495 kPa and 0.000498 kPa
405.14 K | 0.000597 kPa and 0.000591 kPa and 0.000602 kPa
407.19 K | 0.000728 kPa and 0.000721 kPa
409.2 K | 0.000873 kPa and 0.000868 kPa and 0.000883 kPa
411.15 K | 0.001054 kPa and 0.001042 kPa and 0.001008 kPa

Crystal
Conditions | Molar enthalpy of transition or fusion [kcal/mol] | Triple point temperature [K]
[1] | – | 457.6
[2] | 7.17 | –

NC(=O)c1ccccc1N [anthranilamide]
[1], Crystal
Conditions | vapor or sublimation pressure
335.11 K | 9.5e-05 kPa and 9.6e-05 kPa
337.17 K | 0.000121 kPa and 0.00012 kPa
339.17 K | 0.00015 kPa and 0.000149 kPa and 0.000152 kPa
341.1 K | 0.00019 kPa and 0.000188 kPa and 0.000187 kPa
343.16 K | 0.000237 kPa and 0.000232 kPa and 0.000236 kPa
345.16 K | 0.00029 kPa and 0.000285 kPa and 0.000298 kPa
347.11 K | 0.000359 kPa and 0.000357 kPa
349.16 K | 0.000445 kPa and 0.000435 kPa and 0.000441 kPa
351.17 K | 0.000539 kPa and 0.00053 kPa and 0.000545 kPa
353.12 K | 0.000667 kPa and 0.000663 kPa
355.16 K | 0.00082 kPa and 0.000826 kPa and 0.000806 kPa
357.16 K | 0.000993 kPa and 0.000994 kPa

Crystal
Conditions | Molar enthalpy of transition or fusion [kcal/mol] | Triple point temperature [K]
[1] | – | 384.4
[2] | 5 | –
